PMC11627468, “Novel enzyme‐resistant pancreatic polypeptide analogs evoke pancreatic beta‐cell rest, enhance islet cell turnover, and inhibit food intake in mice” (Biofactors (Oxford, England), 2024)
Starred links: 1 amine or outer side, 2 acyl side, 3 side chain; linkers in the order of their positions; H or OH if unused. Residues, ends and D or L forms follow the SMILES beside them. Groups on a side chain read outwards from the residue. *: point of attachment. γGlu = O=C(O)[C@H](CCC(=O)[*:2])N[*:1]; Palmitoyl = CCCCCCCCCCCCCCCC(=O)*

Tests used:
[1] = In vitro DPP‐4 degradation; format: in vitro ADME, human; details: isolated enzyme; peptide 50 μg with purified human DPP‐4 (5 μL, 0.01 U/L), 37°C, 8 h; stopped with 10% (v/v) trifluoroacetic acid; rp‐HPLC C‐18, UV 214 nm; peaks by MALDI‐MS; read-out: % intact peptide after 8 h DPP‐4 incubation
Experimental: PP peptides (50 μg) were incubated at 37°C for 0–8 h with 5 μL of purified human DPP‐4 enzyme (0.01 U/L, Sigma‐Aldrich, Gillingham, UK). Degradation reactions were terminated via the addition of 10 μL 10% (v/v) trifluoroacetic acid/water solution. Reaction mixes were separated by reverse phase rp‐HPLC using a Phenomenex C‐18 analytical column (250 × 4.6 mm^2) with UV absorbance detection at 214 nm (ThermoQuest SpectraSystem UV2000 detector). HPLC peaks of interest were collected and analyzed by MALDI‐TOF MS on a Perseptive Biosystems Voyager‐DE Biospectrometry (Hertfordshire, UK).

C57BL/6 mice [2] = test: Acute food intake in overnight fasted mice; format: in vivo; details: i.p., overnight fasted mice
Experimental: (§1) Acute in vivo studies were conducted in groups (n = 6) of 4‐month‐old male C57BL/6 mice (Envigo, Huntington, UK). All mice were maintained on standard rodent chow (10% fat, 30% protein, and 60% carbohydrate; Trouw Nutrition, Northwich, UK), and drinking water provided ad libitum. Mice were housed individually and kept in a temperature‐controlled environment (22 ± 2°C), with a 12‐h light/dark cycle. Experiments were carried out in accordance with the UK Animal Scientific Procedures Act 1986 as well as being approved by Ulster University Animal Ethics Review Committee (AWERB) committee and protected by the UK Home Office Animal project license number PPL2902, approved on April 26, 2021. Acute effects of test peptides on food intake were tested in overnight (16 h) fasted mice. Briefly, fasted mice were administered an intraperitoneal (i.p.) injection of saline vehicle (0.9% (w/v) NaCl) alone or in combination with test peptides (each at 25, 75, or 200 nmol/kg bw) and cumulative food intake measured at regular intervals, to assess the pharmacodynamic profile of the test peptides. For food intake studies, mice were provided with preweighed rodent maintenance diet in their food hopper at t = 0 min, which was then re‐weighed at each timepoint with all due care taken to account for any wastage or crumbling of the food pellets. In this regard, the investigator was present at all times during the 180‐min test period to ensure accuracy and consistency in all measurements. Furthermore, effects of PP or related peptides (25 nmol/kg bw) on glucose homeostasis and insulin secretion were evaluated in overnight fasted mice following i.p. injection of glucose alone (18 mmol/kg bw) or in combination with PP peptides (each at 25 nmol/kg bw).

C57BL/6 mice [3] = test: Glucose tolerance in mice; format: in vivo; details: PP peptide 25 nmol/kg with CCK‐8 25 nmol/kg and glucose 18 mmol/kg i.p.; n = 6
Experimental: as §1, with “bw). […] Blood glucose was measured immediately using a hand‐held Ascencia Contour blood glucose meter (Bayer Healthcare, Newbury, Berkshire, UK). […]” for “bw).”

C57BL/6 mice [4] = test: Glucose‐stimulated plasma insulin in mice; format: in vivo; details: peptide 25 nmol/kg with glucose 18 mmol/kg i.p., versus glucose control; n = 6
Experimental: as §1, with “bw). […] Blood glucose was measured immediately using a hand‐held Ascencia Contour blood glucose meter (Bayer Healthcare, Newbury, Berkshire, UK). For plasma insulin, blood was collected in chilled fluoride/heparin‐coated microcentrifuge tubes (Sarstedt, Numbrecht, Germany) and centrifuged using a Beckman microcentrifuge (Beckman Instruments, Galway, Ireland) for 10 min at 12,000 rpm. Plasma was separated and stored at −20°C, until determination of plasma insulin by radioimmunoassay.[23]” for “bw).”

Compound: CCCCCCCCCCCCCCCC(=O)N[C@@H](CCC(=O)NCCCC[C@H](NC(=O)[C@H](C)NC(=O)[C@H](CC(N)=O)NC(=O)[C@H](CC(=O)O)NC(=O)CNC(=O)[C@@H]1CCCN1C(=O)[C@H](Cc1ccc(O)cc1)NC(=O)[C@@H](NC(=O)[C@@H]1CCCN1C(=O)[C@H](CCC(=O)O)NC(=O)[C@@H]1CCCN1C(=O)[C@@H]1CCCN1C(=O)[C@H](C)N)C(C)C)C(=O)N1CCC[C@H]1C(=O)N[C@@H](CCC(=O)O)C(=O)N[C@@H](CCC(N)=O)C(=O)N[C@@H](CCSC)C(=O)N[C@@H](C)C(=O)N[C@@H](CCC(N)=O)C(=O)N[C@@H](Cc1ccc(O)cc1)C(=O)N[C@@H](C)C(=O)N[C@@H](C)C(=O)N[C@@H](CC(=O)O)C(=O)N[C@@H](CC(C)C)C(=O)N[C@@H](CCCNC(=N)N)C(=O)N[C@@H](CCCNC(=N)N)C(=O)N[C@@H](Cc1ccc(O)cc1)C(=O)N[C@H](C(=O)N[C@@H](CC(N)=O)C(=O)N[C@@H](CCSC)C(=O)N[C@@H](CC(C)C)C(=O)N[C@H](C(=O)N[C@@H](CCCNC(=N)N)C(=O)N1CCC[C@H]1C(=O)N[C@@H](CCCNC(=N)N)C(=O)N[C@@H](Cc1ccc(O)cc1)C(N)=O)[C@@H](C)O)[C@@H](C)CC)C(=O)O [[P^3,K^13Pal]PP] (H-APPEPVYPGDNAK([γGlu-Palmitoyl])PEQMAQYAADLRRYINMLTRPRY-NH2; N-terminus assumed)
- remaining at 8 h [1]: > 99%
- food intake in overnight fasted mice, summary in discussion (C57BL/6 mice [2]): retained impressive effects to restrict food intake
- effect on CCK‐8 benefit on glucose disposal (C57BL/6 mice [3]): mildly impair the overall glucose‐lowering action of CCK‐8
- glucose‐induced insulin secretion (plasma insulin) (C57BL/6 mice [4]): slightly decreasing (p = <0.05 to 0.01)
